Data published in PMC12813973, “Consequences of Peptide Macrocyclization Revealed by Virus-Inspired β‑Hairpin Mimetics” (ACS Chemical Biology, 2025).
Like-named read-outs stand apart in the source and are kept apart here. *1 amine or outer side, *2 acyl side, *3 side chain or, on linkers, in order; H or OH if unused. Where a SMILES comes first, the peptide text is derived from it. Bridges are numbered along the chain shown (N, C = ends). [ ]: non-standard residue; d: D form. oXylylene = c1ccc(C[*:2])c(C[*:1])c1; βAla = NCCC(=O)O

Key:
[1] = target: T1, STAT1 (Homo sapiens, UniProt P42224); experiment: Grating-coupled interferometry (GCI) waveRAPID kinetics, immobilised full-length STAT1; assay type: binding; conditions: for Kd: 20 mM HEPES pH 7.5, 300 mM NaCl, 0.01% Tween-20, 1:1 kinetic model, average of 2–4 technical replicates ± SD, SD; for kon at 0.5 µM: analyte 0.5 µM, read-out: ka
T1 construct: full-length STAT1 (Uniprot #P42224-1) was expressed in E. coli; His tag (pEXP-NHis vector) (N); made in house; host or cells: E. coli T7 Express
T1 sequence (P42224 1-750): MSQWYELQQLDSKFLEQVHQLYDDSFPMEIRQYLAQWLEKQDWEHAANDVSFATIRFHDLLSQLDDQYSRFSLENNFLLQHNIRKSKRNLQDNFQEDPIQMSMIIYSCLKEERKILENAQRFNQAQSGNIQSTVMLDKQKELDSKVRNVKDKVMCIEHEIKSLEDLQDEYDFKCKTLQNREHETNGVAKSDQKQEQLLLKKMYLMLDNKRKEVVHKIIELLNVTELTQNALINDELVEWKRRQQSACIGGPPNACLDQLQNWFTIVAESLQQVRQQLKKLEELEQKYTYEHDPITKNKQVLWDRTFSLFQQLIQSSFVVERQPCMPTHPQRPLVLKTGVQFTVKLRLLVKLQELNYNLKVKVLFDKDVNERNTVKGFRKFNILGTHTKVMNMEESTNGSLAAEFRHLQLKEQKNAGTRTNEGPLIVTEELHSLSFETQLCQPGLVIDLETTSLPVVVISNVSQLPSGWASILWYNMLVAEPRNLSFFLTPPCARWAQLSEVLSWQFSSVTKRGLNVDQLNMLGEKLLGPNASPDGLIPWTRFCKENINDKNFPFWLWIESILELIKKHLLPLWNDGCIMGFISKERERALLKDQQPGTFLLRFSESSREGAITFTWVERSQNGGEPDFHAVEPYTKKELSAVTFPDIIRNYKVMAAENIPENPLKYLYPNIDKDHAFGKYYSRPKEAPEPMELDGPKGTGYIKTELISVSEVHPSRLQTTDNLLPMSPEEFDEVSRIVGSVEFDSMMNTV
Source text: Understanding the molecular determinants of kinetic rate constants of binding (k a, k d) can aid the design of pharmacological probes with longer target engagement, which is beneficial for drug efficacy and decreased toxicity. , We characterized the binding kinetics of 018-derived macrocycles by using grating-coupled interferometry (GCI). We used waveRAPID, a regeneration-free kinetic binding assay that applies sequential analyte pulses of increasing duration onto a GCI biosensor surface with an immobilized target (Figures A, and S3,S4, Table S2).
(§1) Grating coupled interferometry (GCI)
(§2) GCI experiments were performed on a Creoptix WaveDELTA instrument (Malvern Panalytical). Full-length STAT1 or STAT3 were immobilised on a 4PCH chip (Malvern Panalytical #4PCH-03) to a density 2000-8000 pg/mm2 using EDC/NHS activation followed by amine coupling. Briefly, proteins (500 nM) were applied onto an activated chip in 10 mM MES pH 6.5, 20 mM NaCl, after which the chip surface was passivated with 1M ethanolamine, pH 8.0.
(§3) The kinetic measurements were perfor med using 20 mM HEPES pH 7.5, 300 mM NaCl, 0.01% Tween-20, 0.0005% DMSO as running buffer. Peptides were tested at 0.5 or 10 μM concentration using the waveRAPID kinetics experiment with the tight binder or intermediate binder mode, respectively.[4] Sensorgrams were fitted in the waveControl software (Malven Panalytical) using the 1:1 kinetic model. […]

[2] = target: T1, STAT1; experiment: Isothermal titration calorimetry (ITC) of peptide binding to STAT1
Experimental: To determine affinities and thermodynamic profiles of binding, we performed isothermal titration calorimetry (ITC) experiments for peptides 1, 2, 3, 4, 7, and 8 (Figures A,B and S1,S2, Table S1). […] The experiments were repeated in two different buffer systems, TBST (50 mM Tris pH 8.0, 300 mM NaCl, 0.01% Tween-20) and PBST ([…], 150 mM NaCl, 0.01% Tween-20), to account for possible buffer protonation enthalpy artifacts. […]
Isothermal titration calorimetry (ITC)
ITC experiments were performed using a PEAQ ITC instrument (Malvern Panalytical) in either TBST (50 mM Tris pH 8.0, 300 mM NaCl, 0.5 mM TCEP, 0.01% Tween -20) or PBST (10 mM sodium phosphate pH 7.4, 150 mM NaCl, 0.01% Tween -20) as reaction buffers. STAT1 protein was buffer -exchanged into reaction buffer supplemented with 2% DMSO on a NAP -5 deslating column (Cytiv a #17085301) and its concentration was adjusted to 10 or 20 μM.
Peptides were diluted in reaction buffer from DMSO stocks to a matching 2% DMSO concentration. Peptide concentrations were adjusted to approximately 100-200 μM. ITC experiments were performed with STAT1 in the cell and peptides in the syringe at 25°C, with 750 RPM stirring, DP = 4 μcal/sec. 18 injections of 2 μl were performed over a 50 min titration.
Thermogram integra tion and isotherm fitting were performed using the PEAQ ITC analysis software (Malvern Panalytical ). Isotherms were fitted using a 1:1 binding model. Due to challenges in determining peptide concentrations with high accuracy , protein concentrations and stoichiometry (N=1.0) were kept constant during isotherm fitting, whereas peptide concentrations were allowed to vary. Fixing a single reactant concentration during fitting is acceptable given the sufficiently high C -values and isotherm curvature observed in the […]
Offset subtraction was implemented to remove injection heats.

[3] = target: T2, STAT3 (Homo sapiens, UniProt P40763); experiment: biochemical; assay type: binding
T2 construct: STAT3: the gene encoding full-length STAT3 was codon optimised for expression in; MBP (pEXP-MBP vector) (cleaved yes); His tag (IMAC capture, removed with the fusion by TEV and reverse IMAC) (cleaved yes); made in house; host or cells: E. coli T7 Express
Experimental: In such PPIs, the bulk of the binding energy contribution typically stems from backbone interactions, whereas binding specificity is fine-tuned by side-chain contacts. […] We evaluated the binding kinetics of peptides to full-length STAT3 using GCI.
as §1, §2, §3
GCI sensorgrams depicting RAPID kinetics measurements and fitted kinetic models for peptide binding to full-length STAT3 immobilised on a polycarboxylate hydrogel chip (4PCH). Peptides were applied at 0.5 or 10 μM concentration using the medium or tight binders pulse sequence. The peptides that show negligible Rmax values at 10 μM analyte concentration were classified as non-binding.
(1 picture or pasted object on this page, not shown here)

[4] = target: T1, STAT1; experiment: Fluorescence polarization competition assay with fluorescein-labelled pIFNGR1 docking site peptide probe; assay type: binding; conditions: 10 nM fluorescein pIFNGR1 probe, STAT1 1.5 μM, 20 mM Tris pH 8.0, 300 mM NaCl, 0.1% Tween-20, 0.5 mM TCEP, 2.5% DMSO, room temperature; four parameter logistic fit; read-out: IC50 (FP competition, pIFNGR1 probe displacement)
[5] = replicate 1 (first listed run, Table S2)
[6] = replicate 2 (second listed run, Table S2)
[7] = replicate 3 (third listed run, Table S2)
[8] = PBST pH 7.4 (NaPi, 150 mM NaCl, 0.01% Tween-20), average of 2–3 technical replicates, read-out: KD (ITC, summary Fig 2B)
[9] = TBST pH 8.0, average of 2–3 technical replicates, read-out: KD (ITC, summary Fig 2B)

T2 sequence (P40763 whole entry, species assumed, the tested form may be a part): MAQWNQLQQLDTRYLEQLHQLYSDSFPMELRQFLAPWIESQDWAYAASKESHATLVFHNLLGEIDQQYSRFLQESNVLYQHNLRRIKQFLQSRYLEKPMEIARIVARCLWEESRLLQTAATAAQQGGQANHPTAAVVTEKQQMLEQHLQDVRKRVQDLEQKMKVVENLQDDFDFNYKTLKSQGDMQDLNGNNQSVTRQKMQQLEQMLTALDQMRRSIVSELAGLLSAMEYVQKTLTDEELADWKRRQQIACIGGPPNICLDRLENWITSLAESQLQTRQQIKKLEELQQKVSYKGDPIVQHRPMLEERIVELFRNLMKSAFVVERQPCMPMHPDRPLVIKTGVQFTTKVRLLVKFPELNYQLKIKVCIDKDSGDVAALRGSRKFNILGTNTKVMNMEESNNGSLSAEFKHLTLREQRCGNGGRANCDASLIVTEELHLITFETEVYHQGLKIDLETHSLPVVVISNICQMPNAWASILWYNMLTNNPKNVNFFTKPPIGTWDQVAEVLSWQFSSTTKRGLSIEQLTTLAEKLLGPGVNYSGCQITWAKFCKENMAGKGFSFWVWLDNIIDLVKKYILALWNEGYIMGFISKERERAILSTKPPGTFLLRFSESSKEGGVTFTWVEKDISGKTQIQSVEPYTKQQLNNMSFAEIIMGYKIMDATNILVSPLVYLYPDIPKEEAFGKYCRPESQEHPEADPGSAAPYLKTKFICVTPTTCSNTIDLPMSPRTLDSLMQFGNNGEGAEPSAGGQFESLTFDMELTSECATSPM

Row | Compound | Kd [1] | kon at 0.5 µM [1, 5] | kon at 0.5 µM [1, 6] | kon at 0.5 µM [1, 7] | Kd [2, 8] | Kd ([2]; TBST (50 mM Tris pH 8.0, 300 mM NaCl, 0.01% Tween-20), 25°C, 1:1 model, average of three technical replicates ± SD (text and Fig 2A), SD, read-out: KD (ITC)) | ka [3] | Kd ([3]; full-length STAT3 on 4PCH chip, average of technical replicates ± SD (Fig 3E), SD, read-out: STAT3 KD (GCI waveRAPID)) | kon ([3]; read-out: ka) | Kd [2, 9] | IC50 [4]
1 | CC[C@H](C)[C@@H]1NC(=O)[C@H](Cc2ccccc2)NC(=O)[C@H](C(C)C)NC(=O)[C@H](CO)NC(=O)[C@H](Cc2c[nH]c3ccccc23)NC(=O)[C@H](CCSC)NC(=O)CCNC(=O)CCNC(=O)[C@H]([C@@H](C)O)NC(=O)[C@H](Cc2ccc(O)cc2)NC(=O)[C@H]([C@@H](C)O)NC(=O)[C@H](CCCCN)NC(=O)[C@H](CO)NC(=O)CNC(=O)[C@H](CCCCN)NC(=O)[C@H](CC(N)=O)NC(=O)[C@H](CO)NC(=O)CNC(=O)[C@H](CC(=O)O)NC(=O)[C@H](Cc2c[nH]cn2)NC(=O)CNC(=O)[C@H](Cc2c[nH]cn2)NC1=O [Peptide 2] | 8.9 ± 1.9 nM | 216000 M⁻¹ s⁻¹ | 213000 M⁻¹ s⁻¹ | 321000 M⁻¹ s⁻¹ | 122 nM | 330 ± 20 nM | – | – | – | – | –
2 | CC[C@H](C)[C@@H]1NC(=O)[C@H](CS)NC(=O)[C@H](C(C)C)NC(=O)[C@H](CO)NC(=O)[C@H](Cc2c[nH]c3ccccc23)NC(=O)[C@H](CCSC)NC(=O)CCNC(=O)CCNC(=O)[C@H]([C@@H](C)O)NC(=O)[C@H](Cc2ccc(O)cc2)NC(=O)[C@H]([C@@H](C)O)NC(=O)[C@H](CCCCN)NC(=O)[C@H](CS)NC(=O)CNC(=O)[C@H](CCCCN)NC(=O)[C@H](CC(N)=O)NC(=O)[C@H](CO)NC(=O)CNC(=O)[C@H](CC(=O)O)NC(=O)[C@H](Cc2c[nH]cn2)NC(=O)CNC(=O)[C@H](Cc2c[nH]cn2)NC1=O [Peptide 3] (cyclo(CIHGHDGSNKGCKTYT[βAla][βAla]MWSV)) | 7.5 ± 0.5 nM | 261000 M⁻¹ s⁻¹ | 276000 M⁻¹ s⁻¹ | – | 55 nM | – | 83900 M⁻¹ s⁻¹ | 9300 ± 453 nM | 81000 M⁻¹ s⁻¹ | 145 nM | 1300 nM
3 | CSCC[C@@H]1NC(=O)CCNC(=O)CCNC(=O)[C@H]([C@@H](C)O)NC(=O)[C@H](Cc2ccc(O)cc2)NC(=O)[C@H]([C@@H](C)O)NC(=O)[C@H](CCCCN)NC(=O)[C@H](CO)NC(=O)[C@H](CS)NC(=O)[C@H](CCCCN)NC(=O)[C@H](CC(N)=O)NC(=O)[C@H](CO)NC(=O)CNC(=O)[C@H](CC(=O)O)NC(=O)[C@H](Cc2c[nH]cn2)NC(=O)CNC(=O)[C@H](Cc2c[nH]cn2)NC(=O)[C@H](CS)NC(=O)[C@H](Cc2ccccc2)NC(=O)[C@H](C(C)C)NC(=O)[C@H](CO)NC(=O)[C@H](Cc2c[nH]c3ccccc23)NC1=O [Peptide 7] (cyclo(CHGHDGSNKCSKTYT[βAla][βAla]MWSVF)) | 96.9 ± 4 nM | 129000 M⁻¹ s⁻¹ | 131000 M⁻¹ s⁻¹ | 137000 M⁻¹ s⁻¹ | 114 nM | – | – | – | – | 1930 nM | –
4 | CSCC[C@@H]1NC(=O)CCNC(=O)CCNC(=O)[C@H]([C@@H](C)O)NC(=O)[C@H](Cc2ccc(O)cc2)NC(=O)[C@H]([C@@H](C)O)NC(=O)[C@H](CCCCN)NC(=O)[C@H](CO)NC(=O)[C@@H]2CSCc3ccccc3CSC[C@H](NC(=O)[C@H](Cc3ccccc3)NC(=O)[C@H](C(C)C)NC(=O)[C@H](CO)NC(=O)[C@H](Cc3c[nH]c4ccccc34)NC1=O)C(=O)N[C@@H](Cc1c[nH]cn1)C(=O)NCC(=O)N[C@@H](Cc1c[nH]cn1)C(=O)N[C@@H](CC(=O)O)C(=O)NCC(=O)N[C@@H](CO)C(=O)N[C@@H](CC(N)=O)C(=O)N[C@@H](CCCCN)C(=O)N2 [Peptide 8] (cyclo(CHGHDGSNKCSKTYT[βAla][βAla]MWSVF); linker 1-10 via oXylylene) | 75.4 ± 0.8 nM | 87000 M⁻¹ s⁻¹ | 80000 M⁻¹ s⁻¹ | – | 247 nM | – | – | – | – | 436 nM | –
5 | CC[C@H](C)[C@@H]1NC(=O)[C@@H](NC(=O)[C@@H](NC(=O)[C@H](CO)NC(=O)[C@H](Cc2c[nH]c3ccccc23)NC(=O)[C@H](CCSC)NC(C)=O)C(C)C)CSCc2ccccc2CSC[C@@H](C(=O)N[C@@H](CCCCN)C(=O)N[C@H](C(=O)N[C@@H](Cc2ccc(O)cc2)C(=O)N[C@H](C(N)=O)[C@@H](C)O)[C@@H](C)O)NC(=O)CNC(=O)[C@H](CCCCN)NC(=O)[C@H](CC(N)=O)NC(=O)[C@H](CO)NC(=O)CNC(=O)[C@H](CC(=O)O)NC(=O)[C@H](Cc2c[nH]cn2)NC(=O)CNC(=O)[C@H](Cc2c[nH]cn2)NC1=O [Peptide 9] (Ac-MWSVCIHGHDGSNKGCKTYT-NH2; linker 5-16 via oXylylene) | 1.5 ± 0.1 nM | 587000 M⁻¹ s⁻¹ | 570000 M⁻¹ s⁻¹ | 540000 M⁻¹ s⁻¹ | – | – | – | – | – | – | –
